Test results published in US20250340570A1, “COMPOSITIONS USEFUL FOR MODULATING SPLICING” (Skyhawk Therapeutics, Inc., priority 2022, published 2025).

Tests used:
[1] = test system: ATXN3 transcripts containing exon 4; assay: ATXN3 quantitative splicing assay (qPCR, E4E5 transcripts containing exon 4); format: cell-based; conditions: Human neuroblastoma SK-N-MC cells, 24 h treatment, qPCR primers/probe E4E5
Protocol: Human neuroblastoma SK-N-MC cells were plated in 384-well plates at 20,000 cells/well. Twenty-four hours after plating, cells were treated with compounds for 24 h at appropriate concentrations ranging from 30 μM to 0.6 nM (0.3% DMSO). Treated cells were lysed in 15 μL of lysis buffer, and cDNA was synthesized using the Fast Advanced Cells-to-Ct kit. Two μL of each cDNA was used in qPCR reactions to confirm the exon 4 skipped transcripts of ATXN3. A second set of primers/probe E4E5 was used to detect the transcripts containing exon 4. The third set of primers/probe E8E9 was used to detect total gene level of ATXN3. The qPCR reactions were prepared in 384-well plates in 10.L volume, using TaqMan™ Fast Advanced Master Mix with primers and probes shown in the table below. Reactions were run in a Quant Studio 6 qPCR instrument with default settings.
The primers and probes are listed below in Table 5.

total ATXN3 protein = assay: ATXN3 total protein assay (Mesoscale Discovery); format: cell-based; conditions: Human neuroblastoma SK-N-MC cells, 48 hours incubation, MSD assay
Protocol: Human neuroblastoma SK-N-MC cells were seeded at 10,000 cells/well in 384 well plates one day prior to compound treatment. The concentrations of compounds were tested at appropriate doses ranging from 30 µM to 0.6 nM. After incubation for 48 hours, the cells were lysed with 25.L of lysis buffer containing protease inhibitors, and total ATXN3 protein levels were assessed by Mesoscale Discovery (MSD) assay developed with one pair of and-ATXN3 antibodies. The capture and detect antibodies were raised in mouse and rabbit respectively. Anti-rabbit MSD-ST antibody was used for secondary antibody.
ATXN3 recombinant protein was used for standards. The readouts were captured with 35.L of MSD read buffer and multi-array 384-well high binding plates.

| SMILES | IC50 [1] | IC50 (total ATXN3 protein) |
| --- | --- | --- |
| N[C@H](Cc1sc2c(NCc3ccco3)snc2c1Cl)CC(F)(F)F [Compound 40, 7-[(S)-2-amino-4,4,4-trifluorobutyl]-8-chloro-4-(furfurylamino)-3,6-dithia-2-azabicyclo[3.3.0]octa-1,4,7-triene] | 501 to 5000 nM | 501 to 5000 nM |
| N[C@H](Cc1sc2c(NCc3ccco3)snc2c1Br)CC(F)(F)F [Compound 41, 7-[(S)-2-amino-4,4,4-trifluorobutyl]-8-bromo-4-(furfurylamino)-3,6-dithia-2-azabicyclo[3.3.0]octa-1,4,7-triene] | 501 to 5000 nM | 501 to 5000 nM |
| Cc1c(CCCN)sc2c(NCc3cccs3)snc12 [Compound 45, 7-(3-aminopropyl)-8-methyl-4-thenylamino-3,6-dithia-2-azabicyclo[3.3.0]octa-1,4,7-triene] | 10000 to 40000 nM | 10000 to 40000 nM |
| N[C@@H](CF)Cc1sc2c(NCc3ccco3)snc2c1Cl [Compound 48, 7-[(R)-2-amino-3-fluoropropyl]-8-chloro-4-(furfurylamino)-3,6-dithia-2-azabicyclo[3.3.0]octa-1,4,7-triene] | 101 to 500 nM | 101 to 500 nM |
| N[C@H](Cc1sc2c(NCc3cccs3)snc2c1Br)CC1CC1 [Compound 49, 7-[(S)-2-amino-3-cyclopropylpropyl]-8-bromo-4-thenylamino-3,6-dithia-2-azabicyclo[3.3.0]octa-1,4,7-triene] | 501 to 5000 nM | 501 to 5000 nM |
| C#C[C@H](N)Cc1sc2c(NCc3cccs3)snc2c1C [Compound 54, 7-[(R)-2-amino-3-butynyl]-8-methyl-4-thenylamino-3,6-dithia-2-azabicyclo[3.3.0]octa-1,4,7-triene] | 501 to 5000 nM | 501 to 5000 nM |
| CC#C[C@H](N)Cc1sc2c(NCc3cccs3)snc2c1C [Compound 55, 7-[(R)-2-amino-3-pentynyl]-8-methyl-4-thenylamino-3,6-dithia-2-azabicyclo[3.3.0]octa-1,4,7-triene] | 10000 to 40000 nM | 10000 to 40000 nM |
| N[C@H](Cc1sc2c(NCc3ccco3)snc2c1Cl)CC1CC1 [Compound 57, 7-[(S)-2-amino-3-cyclopropylpropyl]-8-chloro-4-(furfurylamino)-3,6-dithia-2-azabicyclo[3.3.0]octa-1,4,7-triene] | 101 to 500 nM | 501 to 5000 nM |
| N[C@@H](CO)Cc1sc2c(NCc3ccco3)snc2c1Br [Compound 60, (R)-2-amino-3-{8-bromo-4-(furfurylamino)-3,6-dithia-2-azabicyclo[3.3.0]octa-1,4,7-trien-7-yl}-1-propanol] | 0.01 to 100 nM | 0.01 to 100 nM |
| N[C@H](Cc1sc2c(NCc3ccco3)snc2c1Br)CC1CC1 [Compound 61, 7-[(S)-2-amino-3-cyclopropylpropyl]-8-bromo-4-(furfurylamino)-3,6-dithia-2-azabicyclo[3.3.0]octa-1,4,7-triene] | 101 to 500 nM | 101 to 500 nM |
| COC[C@H](N)Cc1sc2c(NCc3cccs3)snc2c1Br [Compound 62, 7-[(R)-2-amino-3-methoxypropyl]-8-bromo-4-thenylamino-3,6-dithia-2-azabicyclo[3.3.0]octa-1,4,7-triene] | 101 to 500 nM | 501 to 5000 nM |
| COC[C@H](N)Cc1sc2c(NCc3ccco3)snc2c1Br [Compound 63, 7-[(R)-2-amino-3-methoxypropyl]-8-bromo-4-(furfurylamino)-3,6-dithia-2-azabicyclo[3.3.0]octa-1,4,7-triene] | 101 to 500 nM | 101 to 500 nM |
| COC[C@H](N)Cc1sc2c(NCc3ccco3)snc2c1Cl [Compound 65, 7-[(R)-2-amino-3-methoxypropyl]-8-chloro-4-(furfurylamino)-3,6-dithia-2-azabicyclo[3.3.0]octa-1,4,7-triene] | 501 to 5000 nM | 101 to 500 nM |
| C[C@H](N)Cc1cc2nsc(NCc3cccs3)c2s1 [Compound 66, 5-[(2S)-2-aminopropyl]-N-(thiophen-2-ylmethyl)thieno[3,2-c][1,2]thiazol-3-amine] | 10000 to 40000 nM | 10000 to 40000 nM |
| FC(F)(F)c1csc2c(NCc3cccs3)snc12 [Compound 67, (thenyl){8-(trifluoromethyl)-3,6-dithia-2-azabicyclo[3.3.0]octa-1,4,7-trien-4-yl}amine] | 10000 to 40000 nM | 10000 to 40000 nM |

More lines, now with the values ahead:

| IC50 [1] | IC50 (total ATXN3 protein) | SMILES |
| --- | --- | --- |
| 501 to 5000 nM | 501 to 5000 nM | N[C@H](Cc1sc2c(NCc3cccs3)snc2c1Cl)C(F)F [Compound 42, 7-[(R)-2-amino-3,3-difluoropropyl]-8-chloro-4-thenylamino-3,6-dithia-2-azabicyclo[3.3.0]octa-1,4,7-triene] |
| 501 to 5000 nM | 101 to 500 nM | N[C@@H](CO)Cc1sc2c(NCc3cccs3)snc2c1Cl [Compound 43, (R)-2-amino-3-(8-chloro-4-thenylamino-3,6-dithia-2-azabicyclo[3.3.0]octa-1,4,7-trien-7-yl)-1-propanol] |
| 5000 to 10000 nM | 501 to 5000 nM | COC[C@H](N)Cc1sc2c(NCc3cccs3)snc2c1Cl [Compound 44, 7-[(R)-2-amino-3-methoxypropyl]-8-chloro-4-thenylamino-3,6-dithia-2-azabicyclo[3.3.0]octa-1,4,7-triene] |
| 101 to 500 nM | 101 to 500 nM | N[C@@H](CO)Cc1sc2c(NCc3ccco3)snc2c1Cl [Compound 46, (R)-2-amino-3-{8-chloro-4-(furfurylamino)-3,6-dithia-2-azabicyclo[3.3.0]octa-1,4,7-trien-7-yl}-1-propanol] |
| 101 to 500 nM | 101 to 500 nM | N[C@@H](CF)Cc1sc2c(NCc3cccs3)snc2c1Cl [Compound 47, 7-[(R)-2-amino-3-fluoropropyl]-8-chloro-4-thenylamino-3,6-dithia-2-azabicyclo[3.3.0]octa-1,4,7-triene] |
| 501 to 5000 nM | 501 to 5000 nM | N[C@H](Cc1sc2c(NCc3cccs3)snc2c1Cl)C1CC(F)(F)C1 [Compound 53, 7-[(R)-2-amino-2-(3,3-difluorocyclobutyl)eth-yl]-8-chloro-4-thenylamino-3,6-dithia-2-azabicyclo[3.3.0]octa-1,4,7-triene] |
| 501 to 5000 nM | 501 to 5000 nM | N[C@H](Cc1sc2c(NCc3cccs3)snc2c1Cl)CC1CC1 [Compound 58, 7-[(S)-2-amino-3-cyclopropylpropyl]-8-chloro-4-thenylamino-3,6-dithia-2-azabicyclo[3.3.0]octa-1,4,7-triene] |
| 101 to 500 nM | 101 to 500 nM | N[C@@H](CO)Cc1sc2c(NCc3cccs3)snc2c1Br [Compound 59, (R)-2-amino-3-(8-bromo-4-thenylamino-3,6-dithia-2-azabicyclo[3.3.0]octa-1,4,7-trien-7-yl)-1-propanol] |
| 501 to 5000 nM | 501 to 5000 nM | COC[C@H](N)Cc1sc2c(NCc3cccs3)snc2c1C [Compound 64, 7-[(R)-2-amino-3-methoxypropyl]-8-methyl-4-thenylamino-3,6-dithia-2-azabicyclo[3.3.0]octa-1,4,7-triene] |
| 10000 to 40000 nM | 10000 to 40000 nM | Cc1c(C[C@@H](N)CC(F)F)sc2c(NCc3cccs3)snc12 [Compound 68, 7-[(S)-2-amino-4,4-difluorobutyl]-8-methyl-4-thenylamino-3,6-dithia-2-azabicyclo[3.3.0]octa-1,4,7-triene] |
| 10000 to 40000 nM | 10000 to 40000 nM | N[C@H](Cc1sc2c(NCc3cccs3)snc2c1Cl)CC(F)F [Compound 69, 7-[(S)-2-amino-4,4-difluorobutyl]-8-chloro-4-thenylamino-3,6-dithia-2-azabicyclo[3.3.0]octa-1,4,7-triene] |
